# Patent US20090075272A1, “Method to Identify CD40-Sensitive Cells Using Gene Expression” (priority 2007, published 2009)
# Entries after “also recorded” stand apart in the source; their conditions may differ.
# Legend:
# OCI-Ly7 cells [1] = assay: Inhibition of CD40-mediated apoptosis by kinase inhibitors (viable cell count); assay type: cell-based, human; conditions: 96 hours CD40 stimulation, U0126 10 μM, PD98059 50 μM, SB203580 10 μM added 30 minutes prior
# Experimental: (§1) FIG. 10 is a bar graph showing the effect of ERK inhibition on CD40-mediated apoptosis. Cells were subjected to CD40 stimulation for 96 hours in the presence of the MEK1/2 inhibitors U0126 (10 μM) or PD98059 (50 μM), or the p38 inhibitor SB203580 (10 μM). Cell viability was quantitated by staining nonpermeabilized cells with propidium iodide, and counting the number of unstained (live) cells per unit volume using a Becton-Dickinson FACScan flow cytometer set to count for 30 seconds. The number of viable cells in anti-CD40-treated samples was expressed as a percentage of the number of viable cells incubated in secondary antibody only. Results from three experiments of four replicates each are shown. Error bars represent standard deviations. […] Constitutive ERK phosphorylation is correlated with CD40-mediated cell death.
# (§2) Cells were resuspended at 1×10^5 cells/mL in RPMI 1640 medium supplemented as described above. Anti-CD40 antibody G28.5 and secondary crosslinking antibody HB58 were added to a final concentration of 10 μg/mL each, and the cells were incubated at 37° C. At 24 hour intervals aliquots of cells were harvested by centrifugation, washed once in phosphate buffered saline, and resuspended in FACS buffer. Non-permeabilized cells were stained by addition of 1 μg/mL propidium iodide, and the density of viable cells was determined using a FACScan flow cytometer and CellQuest software (Becton Dickinson, Mississauga, ON, Canada) set to count for a fixed 30-second time interval. To determine the fraction of cells that had undergone apoptosis, total intracellular DNA content was measured by propidium iodide staining of ethanol-permeabilized cells as previously described (16). Expression of CD40 on the cell surface was confirmed by staining non-permeabilized cells with a phycoerythrin-linked anti-CD40 antibody (clone 5C3, Becton-Dickinson) as per the manufacturer's directions, followed by flow cytometry.
# Su-DHL4 cells [2] = assay: as above; assay type: cell-based, human; conditions: 96 hours CD40 stimulation, U0126 10 μM, PD98059 50 μM, SB203580 10 μM added 30 minutes prior
# Experimental: as §1, §2
# OCI-Ly7 cells [3] = assay: Growth inhibition by kinase inhibitors (MTT assay); assay type: cell-based, human; conditions: 96 hours; inhibitor 10^−4 to 10^−8 M
# Text: (§3) Error bars indicate standard deviations.
# Su-DHL4 cells [4] = assay: Growth inhibition by kinase inhibitors (MTT assay); assay type: cell-based, human; conditions: 96 hours; inhibitor 10^−4 to 10^−8 M
# Text: as §3
# [5] = tested on: phosphorylated ERK in Su-DHL4 cells; conditions: 10 μM, 48 hours
# Experimental: Cells were permeabilized in Cytofix/Cytoperm (Becton-Dickinson) for 20 minutes, and stained with anti-phospho-ERK antibody (Cell Signaling Technology #9101) and FITC-conjugated anti-rabbit secondary antibody (Cedarlane Laboratories, Hornby, ON, CA) following the manufacturers' instructions. The stained cells were analyzed by flow cytometry with a FACScan flow cytometer and CellQuest software.
# This hypothesis was tested using pharmacologic inhibitors of MEK. Su-DHL4 cells were incubated in the presence of 10 μM U0126 for 48 hours, permeabilized and stained with an anti-phospho-ERK antibody.
# [6] = tested on: CD40-sensitive and CD40-resistant DLCBL lines (OCI-Ly1, OCI-Ly7, OCI-Ly8, Su-DHL4); conditions: 96 hours; inhibitor 10^−4 to 10^−8 M
# Experimental: Sensitivity of the cell lines to inhibition of LCK and ERK activity was tested by addition of the src family kinase inhibitor PP1 or the MEK1/2 inhibitor U0126. Cells were incubated for 96 hours in inhibitor concentrations ranging from 10^−4 to 10^−8 M, and viability was assessed by MTT [3-(4,5-dimethylthiazol-2-yl)-2,5-diphenyltetrazolium bromide] assay. Viability is expressed as a percentage of the absorbance at 570 nm as compared to untreated samples. Results of two experiments with quadruplicate samples each were combined. Error bars indicate standard deviations.
# The src family kinase inhibitor PP1 and the MEK inhibitor U0126 were purchased from Biomol (Plymouth Meeting, Pa., USA), and from Cell Signaling Technology (Beverly, Mass., USA) respectively. Kinase inhibition assays were performed using cells seeded at a density of 5×10^4 per mL in 96-well plates, to which kinase inhibitors were added to final concentrations of 10^−4 to 10^−8 M. The treated cells were incubated at 37° C. for 96 hours and cell viability was quantitated by MTT assay as previously described (17).
# Su-DHL4 cells [7] = assay: Cell death after treatment with calcium ionophore; assay type: cell-based, human
structure (smiles),measurement,setting,value
COc1cccc(-c2cc(=O)c3ccccc3o2)c1N [PD98059],CD40-mediated cell death (viable cells in anti-CD40-treated samples vs secondary antibody only),OCI-Ly7 cells [1],prevented CD40-mediated reduction in viability
same,CD40-mediated cell death (viable cells in anti-CD40-treated samples vs secondary antibody only),OCI-Ly7 cells [1]; listed as PD98058,reduced CD40-mediated cell death
same,CD40-mediated cell death (viable cells in anti-CD40-treated samples vs secondary antibody only),Su-DHL4 cells [2],prevented CD40-mediated reduction in viability
same,CD40-mediated cell death (viable cells in anti-CD40-treated samples vs secondary antibody only),Su-DHL4 cells [2]; listed as PD98058,reduced CD40-mediated cell death
Cc1ccc(-c2nn(C(C)(C)C)c3ncnc(N)c23)cc1 [PP1],growth (viability by MTT assay),OCI-Ly7 cells [3],more effective at reducing proliferation; also recorded: inhibited by PP1 more efficiently than growth of CD40-resistant OCI-Ly1 and OCI-Ly8 cells
same,growth (viability by MTT assay),Su-DHL4 cells [4],more effective at reducing proliferation; also recorded: inhibited by PP1 more efficiently than growth of CD40-resistant OCI-Ly1 and OCI-Ly8 cells
C[S+]([O-])c1ccc(-c2nc(-c3ccncc3)c(-c3ccc(F)cc3)[nH]2)cc1 (stereo not shown) [SB203580],CD40-mediated cell death (viable cells in anti-CD40-treated samples vs secondary antibody only),OCI-Ly7 cells [1],reduced by CD40 ligation
same,CD40-mediated cell death (viable cells in anti-CD40-treated samples vs secondary antibody only),Su-DHL4 cells [2],reduced by CD40 ligation
N#CC(=C(/N)Sc1ccccc1N)/C(C#N)=C(\N)Sc1ccccc1N [U0126],phosphorylation of ERK,[5],reduced
same,differential effects on growth of CD40-sensitive and CD40-resistant DLCBL lines,[6],did not show differential effects
same,CD40-mediated cell death (viable cells in anti-CD40-treated samples vs secondary antibody only),OCI-Ly7 cells [1],prevented CD40-mediated reduction in viability; also recorded: reduced CD40-mediated cell death
same,CD40-mediated cell death (viable cells in anti-CD40-treated samples vs secondary antibody only),Su-DHL4 cells [2],prevented CD40-mediated reduction in viability; also recorded: reduced CD40-mediated cell death
C[C@H](CCC(=O)O)C[C@H](C)C[C@H](C)C(=O)/C=C(\O)[C@H](C)C[C@H](C)C/C=C/[C@@H](C)[C@@H](O)[C@@H](C)[C@@H](O)C[C@@H]1CC[C@@](C)([C@H]2CC[C@@](C)([C@@H](C)O)O2)O1 [ionomycin],cell death,Su-DHL4 cells [7],induced cell death
